Measured values taken from patent publication US6838237B2, “Antigenically reactive regions of the hepatitis a virus polyprotein” (The United States of America as represented by the …, priority 1996, dated 2005).
“And” between values parts separate entries of the source, which are not always exact repeats. Equal entries are not always repeated.

Experiments:
anti-HAV-negative sera = assay: EIA for anti-HAV: synthetic peptides reacted with anti-HAV-negative sera; format: binding, human; conditions: experiment 1: sera 1:100, cutoff P/N 3.0
Excerpt: (§1) All anti-HAV-positive and anti-HAV-negative sera were randomly selected from a collection reposited at the Centers for Disease Control and Prevention, Atlanta, Ga. Serum specimens were collected from anti-HAV-positive patients with acute liver disease. Anti-HAV-negative serum specimens were collected from normal blood donors. All sera were initially tested by commercially available kit for the presence of anti-HAV activity (HAVAB and HAVAB-M, Abbott Laboratories, Abbott Park, Ill.)
(§2) Synthetic peptides (110 ml) at a concentration of 10 mg/ml in 0.1 M phosphate-buffered saline (PBS), pH 7.5, were adsorbed to microtiter wells (Immulon II, Dynatech Laboratories, Inc.) at room temperature for 12 h. Sera were diluted in PBS containing 0.1% Tween 20 and 10% normal goat serum (PBS-T) and 100 ml were added to each well, incubated for 60 min at 37E C, and washed with PBS containing Tween-20. […] Two different cutoffs were established for experiments 1 and 2. In experiment 1, the cutoff, expressed as a P/N ratio and equal to 3.0, was statistically established as the mean of negative controls plus at least 3.5 standard deviations (SD) above the mean, where P represents the optical density value at 493 nm (OD493) of anti-HAV-positive specimens and N represents the optical density value of negative controls. In experiment 2, a different cutoff was used to ensure statistical reliability and accurate interpretation of positive results. In this case, in addition to anti-HAV-negative sera, two irrelevant synthetic peptides were used as supplemental negative controls to determine the degree of nonspecific binding of anti-HAV sera to synthetic peptides. One cutoff, expressed as a P/N ratio and equal to 3.0, corresponded to the mean of negative serum controls plus at least 3.5 SD above the mean. A second cutoff was also expressed as a P/N ratio, where P represents the optical density value at 493 nm (OD493) for HAV peptides immunoreacting with anti-HAV-positive specimens and N represents the optical density value obtained with the irrelevant peptides. The second cutoff was equal 2.0 and corresponded to the mean of OD values obtained with the irrelevant peptides plus at least 3.5 SD above the mean. Synthetic peptides were considered immunoreactive with anti-HAV serum specimens only when both cutoffs were satisfied.

anti-HAV-positive sera = assay: EIA for anti-HAV: synthetic peptides adsorbed to wells, reacted with anti-HAV-positive acute sera; format: binding, human; conditions: for Reactivity with acute sera (reactive/tested): experiment 1: sera 1:100, anti-human IgG-HRP, cutoff P/N 3.0; for Reactivity with acute sera (percent of sera reactive): experiment 1: sera 1:100, cutoff P/N 3.0; for P/N for acute sera (mean) / P/N for acute sera (range, in parentheses) / P/N for acute sera (individual values): experiment 1; for P/N for acute sera (mean) / P/N for acute sera (range, in parentheses): OD493 positive/negative ratio of reactive sera; for P/N for acute sera (individual values): single sera listed with semicolon
Excerpt: as §1, §2

Sequence | Reactivity with negative sera (reactive/tested) (anti-HAV-negative sera) | immunoreactivity with anti-HAV-positive sera (in words) (anti-HAV-positive sera) | Reactivity with acute sera (reactive/tested) (anti-HAV-positive sera) | Reactivity with acute sera (percent of sera reactive) (anti-HAV-positive sera) [%] | P/N for acute sera (mean) (anti-HAV-positive sera) | P/N for acute sera (range, in parentheses) (anti-HAV-positive sera) | P/N for acute sera (individual values) (anti-HAV-positive sera) | percent of (IgM) anti-HAV-positive sera immunoreactive with peptide (anti-HAV-positive sera)
AGDLESSVDDPRSEEDKRFE [YK-1313] | 3/51 | broad and strong antigenic reactivity | 18/48 | 37.5 | 15.79 | (3.0-108.06) | – | –
AKKVPETFPELKPGESRHTS [YK-1273] | 3/48 | broad and strong antigenic reactivity | 19/46 | 41.3 | 5.15 | (3.15-8.58) | – | –
CPKDELRPLEKVLESKTRAI [YK-1411] | 0/27 | – | 8/41 | 19.5 | 8.18 | (4.65-17.65) | – | –
DHMSIYKFMGRSHFLCTFTF [YK-1276] | 0/46 | broad and strong antigenic reactivity | 17/41 | 41.5 | 4.38 | (3.15-5.62) | – | –
DKPGSKKTQGEKFFLIHSAD [YK-1212] | 0/46 | – | 3/41 | 7.3 | 3.5 | (3.04-3.96) | – | –
DLDFSAFDASLSPFMIREAG [YK-1419] | 1/27 | – | 5/41 | 12.2 | 5.27 | (3.98-8.49) | – | –
DLEEIAANSKDFPNMSETDL [YK-1328] | 1/51 | – | 6/48 | 12.5 | 4.76 | (3.74-6.39) | – | –
DRTAVTGASYFTSVDQSSVH [YK-1208] | 0/46 | – | 5/41 | 12.2 | 4.29 | (3.27-5.54) | – | –
DSAVAEFFQSFPSGEPSNSK [YK-1369] | 1/27 | – | 24/41 | 58.5 | 21.71 | (3.8-42.62) | – | –
DVVLMKVPTIPKFRDITQHF [YK-1382] | 0/27 | – | 1/41 | 2.4 | 8.4 | – | – | –
EDPVLAKKVPETFPELKPGE [YK-1272] | 1/46 | – | 6/41 | 14.6 | 5.4 | (4.87-6.12) | – | –
EPLRTSVDKPGSKKTQGEKF [YK-1211] | 0/48 | – | 21/46 | 45.7 | 9.33 | (3.37-27.92) | – | –
EVGSHQVEPLRTSVDKPGSK [YK-1210] | 0/48 | – | 15/46 | 32.6 | 7.31 | (3.93-20.47) | – | –
FDFQVFPTKYHSGRLLFCFV [YK-1249] | 0/48 | broadly and strongly immunoreactive | 18/46 | 39.1 | 5.03 | (3.07-7.03) | – | –
FNASDSVGQQIKVIPVDPYF [YK-1242] | 0/46 | Very weakly reactive | 1/41 | 2.4 | 3.1 | – | – | –
FPELKPGESRHTSDHMSIYK [YK-1274] | 1/48 | – | 9/46 | 19.6 | 5.31 | (3.0-8.47) | – | –
FPTKYHSGRLLFCFVPGNEL [YK-1250] | 0/48 | broadly and strongly immunoreactive | 17/46 | 37.0 | 5.68 | (3.4-7.92) | – | –
FQSFPSGEPSNSKLSGFFQS [YK-1370] | 1/27 | – | 10/41 | 24.4 | 8.05 | (3.05-18.48) | – | –
FSQAKISLFYTEEHEIMKFS [YK-1319] | 2/51 | – | 13/48 | 27.1 | 3.87 | (3.14-5.01) | – | –
FTQCSMNVVSKTLFRKSPIY [YK-1395] | 1/27 | – | 8/41 | 19.5 | 6.52 | (3.51-17.52) | – | –
FWRGDLVFDFQVFPTKYHSG [YK-1248] | 0/46 | – | 3/41 | 7.3 | – | – | 3.16 and 3.2 | –
GGIKITHFTTWTSIPTLAAQ [YK-1236] | 0/48 | – | 22/46 | 47.8 | 4.68 | (3.1-9.33) | – | –
GITLKQATTAPCAVMDITGV [YK-1252] | 0/46 | – | 2/41 | 4.9 | – | – | 3.67 and 17.95 | –
GLDHILSLADIEEEQMIQSV [YK-1206] | 0/46 | – | 8/42 | 19.1 | 9.46 | (3.01-27.07) | – | –
GLVRKNLVQFGVGEKNGCVR [YK-1376] | 0/27 | – | 3/41 | 7.3 | 6.71 | (3.8-12.77) | – | –
QRLKYAQEELSNEVLPPPRKMKGLF [YK-1665] | – | greater immunoreactivity than Peptide No. YK-1317 | – | – | – | – | – | –
SAVAEFFQSFPSGEPSNSKLSGFFQ [YK-1832] | – | – | – | – | – | – | – | about 86.0%
WLNPKKINLADRMLGLSGVQEIKEQ [YK-1757] | – | very strong antigenically reactive | – | – | – | – | – | –
